Among the data in patent US4198349A, “Benzylideneaniline derivatives” (William H. Rorer, Inc., priority 1978, dated 1980) are inhibition in vivo values, retold here.

The structures appear in SMILES notation.

For this test, the system named is croton oil-induced inflammation in the mouse's ear. As to the kind of experiment: Topical anti-inflammatory activity after immediate application in croton oil-induced inflammation in the mouse's ear. Format: in vivo, mouse (female CF1). The settings on record: 4 h, Topical Dose 4 mg/ear, immediate application with 2% croton oil, ears taken four hours after application, read-out: % Inhibition of Ear Edema. On the procedure:
Testing of the anti-inflammatory effects of the compounds of Formula I were performed utilizing a modification of the experimental techniques described by Tonelli, G., Thibault, L. and Ringler, L., "A Bioassay for the Concomitant Assessment of the Anti-phlogistic and Thymolytic Activities of Topically Applied Corticoids": Endocrinology 77, 625 (1965) and Roszkowski, A. P., Rooks, W. H. II, Tomolonis, A. J., and Miller, L. M., "Anti-inflammatory and Analgetic Properties of the d-2-(6-Methoxy-2'-Naphthyl)Propionic Acid (Naproxen)". J. Pharm. Exp. Ther., 179, 114 (1971).
The topical anti-inflammatory activity of the test compounds is measured by immediate application at the time of induction of croton oil-induced inflammation in the mouse's ear.
0.1 ml. of a solution containing 2% croton oil (Amend Drug and Chemical Co., Irvington, N.J.), 73% diethyl ether, U.S.P. (Corco Chemical Corp., Fairless Hills, Pa.), 20% pyridine (J. T. Baker Chemical Co., Phillipsburg, Pa.) and 5% distilled water was applied to the left ear of female CF1 mice, in groups of six, during light ether anesthesia.
Four hours after application of either the irritant solution or the irritant solution containing the test compound, the mice were sacrificed by cervical dislocation, both ears were amputated and circular sections, one from each ear, were removed with a No. 4 cork borer (7 mm, i.d.). Each ear section was then weighed. The increase in weight due to edema formation caused by the croton oil in the treated ear and the reduction of that edema caused by drug treatment was determined by subtracting the weight of the untreated right ear section from that of the treated left ear section.
The anti-inflammatory effects of the test compounds expressed as percent inhibition are calculated by: [formula]
TOPICAL ANTI-INFLAMMATORY ACTIVITY AFTER
IMMEDIATE APPLICATION IN CROTON OIL-INDUCED
INFLAMMATION IN THE MOUSE'S EAR

Take `Clc1ccc(N=Cc2c(Cl)cccc2Cl)cc1` [N-(2,6-dichlorobenzylidene)-p-chloroaniline]: the inhibition in vivo at 4 mg/ear was determined as 9.1%.
Next, `Brc1ccc(N=Cc2ccc(-c3ccccc3)cc2)cc1` [N-(p-phenylbenzylidene)-p-bromoaniline]: 25.5%; `Clc1ccc(C=Nc2cccc(Cl)c2)cc1` [N-(p-chlorobenzylidene)-m-chloroaniline]: 23.6%.
The figure for `Oc1ccccc1C=Nc1ccc(F)cc1` [N-(o-hydroxybenzylidene)-p-fluoroaniline] is 21.5%.
Next, `Cc1c(Cl)cccc1N=Cc1ccccc1Cl` [N-(o-chlorobenzylidene)-3-chloro-2-methylaniline]: 44.3%; `Fc1ccc(N=Cc2ccc(Cl)cc2)cc1` [N-(p-chlorobenzylidene)-p-fluoroaniline]: 45.2%; `Cc1ccc(N=Cc2ccc(-c3ccccc3)cc2)cc1` [N-(p-phenylbenzylidene)-p-methylaniline]: 27%.
In the case of `Fc1ccc(C=Nc2ccccc2C(F)(F)F)cc1` [N-(p-fluorobenzylidene)-o-trifluoromethylaniline], the inhibition in vivo at 4 mg/ear amounted to 21.3%.
The figure for `Oc1ccccc1C=Nc1cccc(C(F)(F)F)c1` [N-(o-hydroxybenzylidene)-m-(α,α,α-trifluorotoluidine)] is 21.6%.
The figure for `C(=Nc1ccccc1)c1ccc(-c2ccccc2)cc1` [N-(p-phenylbenzylidene)-aniline, N-(p-phenylbenzylidene)aniline] is 24.7%; for `CCc1ccc(N=Cc2ccccc2)cc1` [N-benzylidene-p-ethylaniline] it is 30.5%.
Next, `Fc1ccc(N=Cc2ccc(Cl)cc2)c(C(F)(F)F)c1` [N-(p-chlorobenzylidene)-4-fluoro-2-trifluoromethylaniline]: 36.5%.
`Fc1cccc(N=Cc2ccc(Cl)cc2)c1` [N-(p-chlorobenzylidene)-m-fluoroaniline]: the inhibition in vivo at 4 mg/ear came out at 10.8%.
As to `Cc1ccc(N=Cc2ccccc2)cc1` [N-benzylidene-p-toluidine], the inhibition in vivo at 4 mg/ear is 45%.
The figure for `Cc1cc(F)ccc1N=Cc1ccccc1` [N-benzylidene-2-methyl-4-fluoroaniline] is 26.8%; for `Clc1ccc(N=Cc2ccccc2)cc1` [N-benzylidene-p-chloroaniline] it is 29.3%.
The figure for `Cc1cc(Cl)ccc1N=Cc1ccc(Cl)cc1` [N-(p-chlorobenzylidene)-2-methyl-4-chloroaniline] is 23%; for `Clc1cc(Br)ccc1N=Cc1ccc(-c2ccccc2)cc1` [N-(p-phenylbenzylidene)-2-chloro-4-bromoaniline] it is 33.9%.
Next, `Cc1ccc(N=Cc2ccc(Cl)cc2)cc1` [N-(p-chlorobenzylidene)-p-methylaniline]: 16.2%.
For `Clc1cc(C=Nc2ccc(Br)cc2)ccc1C1CCCCC1` [N-(3-chloro-4-cyclohexylbenzylidene)-p-bromoaniline], the inhibition in vivo at 4 mg/ear amounted to 1.5%.
Next, `Fc1ccc(N=Cc2ccc(Br)cc2)c(C(F)(F)F)c1` [N-(p-bromobenzylidene)-4-fluoro-2-trifluoromethylaniline]: 18.8%; `Fc1ccc(N=Cc2ccccc2Cl)cc1` [N-(o-chlorobenzylidene)-p-fluoroaniline]: 24.3%.
Next, `C(=Nc1ccccc1)c1ccccc1` [N-benzylideneaniline, N-Benzylideneaniline]: 4.9%; `Cc1ccccc1N=Cc1ccccc1` [N-benzylidene-o-toluidine]: 5.5%; `Fc1ccc(N=Cc2ccc(C3CCCCC3)c(Cl)c2)cc1` [N-(3-chloro-4-cyclohexylbenzylidene)-p-fluoroaniline]: 6.8%.
Next, `Clc1cccc(N=Cc2ccccc2Cl)c1` [N-(o-chlorobenzylidene)-m-chloroaniline]: 4%.
As for `Oc1ccccc1C=Nc1ccccc1` [N-(o-hydroxybenzylidene)-aniline, N-(o-hydroxybenzylidene)aniline], the inhibition in vivo at 4 mg/ear came out at 5.3%.
The figure for `Cc1cccc(N=Cc2ccccc2O)c1C` [N-(o-hydroxybenzylidene)-2,3-dimethylaniline] is 27.8%; for `Cc1c(Cl)cccc1N=Cc1ccc(Cl)cc1` [N-(p-chlorobenzylidene)-2-methyl-3-chloroaniline] it is 46.8%.
The figure for `Fc1ccc(N=Cc2cccc(Cl)c2)cc1` [N-(m-chlorobenzylidene)-p-fluoroaniline] is 9.1%.
The figure for `Cc1c(Cl)cccc1N=Cc1ccccc1O` [N-(o-hydroxybenzylidene)-2-methyl-3-chloroaniline] is 38.5%.
